Test system: MCF-7 human breast cancer cells
Assay: cell viability/apoptosis after 24 h exposure to pro-apoptotic peptides and CPP fusions
Format: cell-based
Conditions: MCF-7 cells, various concentrations
Description: (§1) MCF-7 human breast cancer cells were incubated for 24 h in the presence of various concentrations of NRTN (squares), Nur (circles), and NurNRTN (triangles) peptides. The respective amino acid sequences are given in the bottom panel. The experimental approach for assessing cell viability (and thus induction of apoptosis) was the same as in FIG. 3.
as §1, with “4E-BP1 (circles), TAT4E-BP1” for “NRTN”, “(squares),” for “(squares), Nur (circles),”, “NRTN4E-BP1” for “NurNRTN”, “peptides (top panel). […]” for “peptides.”
Luminescence was analyzed in an InfiniteF200 luminescence reader.
Then, the cells were treated with a luminogenic peptide substrate in order to measure dead-cell protease activity, which is released from cells that have lost membrane integrity. […] The luminescence of this assay therefore represents dead cells. The 96 well plates were then analyzed in an InfiniteF200 luminescence reader.
Despite its proven ability to convert BCL-2 into a pro-apoptotic molecule, addition of the latter peptide (i.e. “Nor/Nur”; SEQ ID NO: 72) to cancer cells, even in high concentrations, is not sufficient to induce apoptosis, as the cellular target protein is located in the cytoplasm, but the peptide per se cannot effectively penetrate through the cell membrane to reach the target. In brief, MCF-7 breast cancer cells were incubated in the presence of this peptide for 24 h.
(§2) Subsequently, it was evaluated whether the NurNRTN fusion peptide is capable of penetrating cellular membranes and thereby induces pro-apoptotic activity within cells. MCF-7 human breast cancer cells were used as a model. The experimental approach was as described above (cf. Example 1). […] This effect was dose dependent: cytotoxicity increased with increasing concentrations of peptide.
as §2, with “NRTN4E-BP1” for “NurNRTN”

GAAEAAARVYDLGLRRLRQRRRLRRERVRA (NRTN peptide sequence; listed as Homo sapiens) [peptide derived from human neurturin]
cell viability / induction of apoptosis: did not affect cell viability or lead to induction of apoptosis
